Conditions: Liquid; for speed of sound: Pulse-echo method; for mass density: Vibrating tube method

CCCCCCCCCCCCCCCCCc1ccccc1 [heptadecane, 1-phenyl-]
Conditions	mass density, 303.15 K [kg/m3]	mass density, 313.15 K [kg/m3]	mass density, 323.15 K [kg/m3]	mass density, 333.15 K [kg/m3]	mass density, 343.15 K [kg/m3]	speed of sound, 303.15 K [m/s]	speed of sound, 313.15 K [m/s]	speed of sound, 323.15 K [m/s]	speed of sound, 333.15 K [m/s]	speed of sound, 343.15 K [m/s]
100 kPa	847.62	840.87	834.27	827.59	820.95	1422.6	1387.1	1352.6	1319.9	1287
5000 kPa	850.37	843.75	837.23	830.84	824.32	–	–	–	–	–
10000 kPa	853.14	846.65	840.29	833.94	827.71	1467.5	1433.6	1402.3	1370.2	1338.7
15000 kPa	855.85	849.47	843.15	837.13	–	–	–	–	–	–
20000 kPa	858.47	852.17	845.93	839.97	–	1510.9	1479.2	1447.9	1417.3	–
25000 kPa	861	854.73	848.7	842.84	–	–	–	–	–	–
30000 kPa	863.37	857.38	851.34	845.52	–	1552	1520.4	1490.8	1461.4	–
35000 kPa	865.81	859.9	853.89	848.14	–	–	–	–	–	–
40000 kPa	868.19	862.24	856.43	850.62	–	1590.5	1559.7	1531.1	1502.9	–
45000 kPa	870.43	864.56	858.84	853.3	–	–	–	–	–	–
50000 kPa	872.65	866.8	861.35	855.69	–	1627.2	1597.9	1569.2	1542.1	–
55000 kPa	874.7	869.08	863.55	858	–	–	–	–	–	–
60000 kPa	876.93	870.6	865.8	860.35	–	1661.9	1633.6	1605.8	1579.2	–
70000 kPa	–	–	–	–	–	1695.6	1667.3	1640.7	1614.6	–
80000 kPa	–	–	–	–	–	–	1700	1673.9	1648.7	–
90000 kPa	–	–	–	–	–	–	1731.8	1705.8	1681.3	–
100000 kPa	–	–	–	–	–	–	1762	1736.6	1712.2	–
110000 kPa	–	–	–	–	–	–	1790.2	1766.3	1742.3	–
120000 kPa	–	–	–	–	–	–	1818.7	1794.9	1771.7	–
130000 kPa	–	–	–	–	–	–	1847.1	1822.8	1799.8	–
140000 kPa	–	–	–	–	–	–	–	1849.3	1826.9	–
150000 kPa	–	–	–	–	–	–	–	1875.5	1853.6	–

— the NIST ThermoML archive (doi:10.1021/je049973v)
